Data from ChEMBL document CHEMBL5331095, “Structure-activity relationship and biological evaluation of xanthine derivatives as PCSK9 inhibitors for the treatment of atherosclerosis” (Eur J Med Chem, 2023).

Tests used:
[1] = target: Proprotein convertase subtilisin/kexin type 9 (Homo sapiens) (UniProt Q8NBP7); test: Inhibition of PCSK9 transcriptional activity in human HepG2 cells stably expressing luciferase reporter plasmid containing PCSK9 promoter assessed as decrease in luciferase activity at 10 ug/ml incubated for 24 hrs by Luciferase assay relative to control; assay type: cell-based; conditions: dose 10.0 µg/ml
Chain of Proprotein convertase subtilisin/kexin type 9 (Homo sapiens) (Q8NBP7 31-152 limits assumed): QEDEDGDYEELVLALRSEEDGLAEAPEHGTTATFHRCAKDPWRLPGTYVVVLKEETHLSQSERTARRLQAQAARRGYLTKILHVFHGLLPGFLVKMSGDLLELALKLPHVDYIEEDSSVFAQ
Chain of Proprotein convertase subtilisin/kexin type 9 (Homo sapiens) (Q8NBP7 153-692 limits assumed): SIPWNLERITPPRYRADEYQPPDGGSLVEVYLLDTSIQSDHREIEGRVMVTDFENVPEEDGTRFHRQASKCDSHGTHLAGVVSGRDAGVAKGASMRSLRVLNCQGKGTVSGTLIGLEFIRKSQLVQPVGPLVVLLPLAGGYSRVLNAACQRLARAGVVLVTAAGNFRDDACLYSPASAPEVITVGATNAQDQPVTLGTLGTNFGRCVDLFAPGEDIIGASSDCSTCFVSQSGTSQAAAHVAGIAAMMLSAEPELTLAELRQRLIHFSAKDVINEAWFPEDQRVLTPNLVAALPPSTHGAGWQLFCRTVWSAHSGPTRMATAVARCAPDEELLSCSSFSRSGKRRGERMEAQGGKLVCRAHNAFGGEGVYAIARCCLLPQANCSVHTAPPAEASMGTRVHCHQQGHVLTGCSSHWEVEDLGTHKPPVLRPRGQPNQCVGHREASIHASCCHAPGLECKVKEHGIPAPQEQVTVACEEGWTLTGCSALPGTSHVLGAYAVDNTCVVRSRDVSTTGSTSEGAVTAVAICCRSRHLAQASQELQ

[2] = Cytotoxicity against human HepG2 cells assessed as reduction in cell viability by measuring toxic concentration incubated for 24 hrs by MTT assay; assay type: toxicity, cell-based; conditions: read-out: TC50
[3] = tested on: PCSK9 transcriptional activity; test: Therapeutic index, ratio of TC50 for cytotoxicity against human HepG2 cells to IC50 for inhibition of PCSK9 transcriptional activity in human HepG2 cells stably expressing luciferase reporter plasmid containing PCSK9 promoter; assay type: toxicity, cell-based

Structure (SMILES)	inhibition [1] [%]	CC50 at 24 h [2] [µM]	selectivity ratio [3]
COc1cccc(Cn2c(N3CCOCC3)nc3c2c(=O)n(C)c(=O)n3C)c1	16.3		
Cn1c(=O)c2c(nc(NCCO)n2CC(=O)c2ccccc2)n(C)c1=O	40.8		
COc1cccc(Cn2c(NC(CO)CO)nc3c2c(=O)n(C)c(=O)n3C)c1	37		
COc1cccc(Cn2c(N(C)CCO)nc3c2c(=O)n(C)c(=O)n3C)c1	9.4		
COc1cccc(Cn2c(N[C@@H](C)CO)nc3c2c(=O)n(C)c(=O)n3C)c1	81		
COC(=O)CNc1nc2c(c(=O)n(C)c(=O)n2C)n1Cc1cccc(OC)c1	68.4		
Cn1c(=O)c2c(nc(NCCO)n2Cc2cc(F)ccc2F)n(C)c1=O	79.9		
COc1cccc(Cn2c(NCCCO)nc3c2c(=O)n(C)c(=O)n3C)c1	60.1		
Cn1c(=O)c2c(nc(NCCO)n2Cc2cccc(Br)c2)n(C)c1=O	34.2		
COc1cccc(Cn2c(N3CCCCC3CN3CCCC3)nc3c2c(=O)n(C)c(=O)n3C)c1 (configuration not stated)	0.8		
Cn1c(=O)c2c(nc(NCCO)n2Cc2ccc(Cl)cc2)n(C)c1=O	47		
COc1cccc(Cn2c(NC[C@H](C)O)nc3c2c(=O)n(C)c(=O)n3C)c1	68.9		
COc1cc(Cn2c(NCCO)nc3c2c(=O)n(C)c(=O)n3C)cc(OC)c1	1.7		
COc1cccc(Cn2c(NC[C@@H](C)O)nc3c2c(=O)n(C)c(=O)n3C)c1	81.7	89.2	22.9
COc1cccc(Cn2c(NCCN(C)C)nc3c2c(=O)n(C)c(=O)n3C)c1	19.6		
Cn1c(=O)c2c(nc(NCCO)n2Cc2ccccc2Br)n(C)c1=O	53.3		
Cc1ccccc1Cn1c(NCCO)nc2c1c(=O)n(C)c(=O)n2C	88.1		
Cn1c(=O)c2c(nc(NCCO)n2Cc2ccc([N+](=O)[O-])cc2)n(C)c1=O	23.3		
COc1cccc(Cn2c(N[C@@H](CO)C(C)C)nc3c2c(=O)n(C)c(=O)n3C)c1	18.9		
Cn1c(=O)c2c(nc(NCCO)n2Cc2ccc(F)c(C(F)(F)F)c2)n(C)c1=O	87	55.1	7.1
COc1cccc(Cn2c(N3CCSCC3)nc3c2c(=O)n(C)c(=O)n3C)c1	17		
Cn1c(=O)c2c(nc(NCCO)n2Cc2ccccc2[N+](=O)[O-])n(C)c1=O	20.2		
Cn1c(=O)c2c(nc(NCCO)n2Cc2c(F)cccc2F)n(C)c1=O	91		
